According to patent publication US9302988B2, “Fluoromethyl-substituted pyrrole carboxamides” (GRÜNENTHAL GMBH, priority 2012, dated 2016):

Target: T1, Human CaV2.2 channels (Homo sapiens, UniProt Q00975)
T1 construct: expressed in transfected cells
Assay: Fluorescent assay for CaV2.2 channels using potassium depolarization to induce channel opening (FLIPR, Fluo-4)
Assay type: cell-based
Settings: 3 μM test compound, 30 mM KCl, HEK293 cells stably expressing human CaV2.2; read-out: %-Inhib (CaV2.2) @3 μM @30 mM KCl
How it was run: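 Channel block was read as the baseline-normalized peak Ca²⁺ signal (Fluo-4, 480/535 nm) after a high-KCl depolarizing addition (210 mM KCl buffer). Beforehand, compound sat 15 min at 25 °C on HEK293 cells carrying human CaV2.2, α2δ/β subunits and Kir2.3, in pH 7.4 buffer with 30 mM KCl.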

T1 sequence (Q00975 whole entry): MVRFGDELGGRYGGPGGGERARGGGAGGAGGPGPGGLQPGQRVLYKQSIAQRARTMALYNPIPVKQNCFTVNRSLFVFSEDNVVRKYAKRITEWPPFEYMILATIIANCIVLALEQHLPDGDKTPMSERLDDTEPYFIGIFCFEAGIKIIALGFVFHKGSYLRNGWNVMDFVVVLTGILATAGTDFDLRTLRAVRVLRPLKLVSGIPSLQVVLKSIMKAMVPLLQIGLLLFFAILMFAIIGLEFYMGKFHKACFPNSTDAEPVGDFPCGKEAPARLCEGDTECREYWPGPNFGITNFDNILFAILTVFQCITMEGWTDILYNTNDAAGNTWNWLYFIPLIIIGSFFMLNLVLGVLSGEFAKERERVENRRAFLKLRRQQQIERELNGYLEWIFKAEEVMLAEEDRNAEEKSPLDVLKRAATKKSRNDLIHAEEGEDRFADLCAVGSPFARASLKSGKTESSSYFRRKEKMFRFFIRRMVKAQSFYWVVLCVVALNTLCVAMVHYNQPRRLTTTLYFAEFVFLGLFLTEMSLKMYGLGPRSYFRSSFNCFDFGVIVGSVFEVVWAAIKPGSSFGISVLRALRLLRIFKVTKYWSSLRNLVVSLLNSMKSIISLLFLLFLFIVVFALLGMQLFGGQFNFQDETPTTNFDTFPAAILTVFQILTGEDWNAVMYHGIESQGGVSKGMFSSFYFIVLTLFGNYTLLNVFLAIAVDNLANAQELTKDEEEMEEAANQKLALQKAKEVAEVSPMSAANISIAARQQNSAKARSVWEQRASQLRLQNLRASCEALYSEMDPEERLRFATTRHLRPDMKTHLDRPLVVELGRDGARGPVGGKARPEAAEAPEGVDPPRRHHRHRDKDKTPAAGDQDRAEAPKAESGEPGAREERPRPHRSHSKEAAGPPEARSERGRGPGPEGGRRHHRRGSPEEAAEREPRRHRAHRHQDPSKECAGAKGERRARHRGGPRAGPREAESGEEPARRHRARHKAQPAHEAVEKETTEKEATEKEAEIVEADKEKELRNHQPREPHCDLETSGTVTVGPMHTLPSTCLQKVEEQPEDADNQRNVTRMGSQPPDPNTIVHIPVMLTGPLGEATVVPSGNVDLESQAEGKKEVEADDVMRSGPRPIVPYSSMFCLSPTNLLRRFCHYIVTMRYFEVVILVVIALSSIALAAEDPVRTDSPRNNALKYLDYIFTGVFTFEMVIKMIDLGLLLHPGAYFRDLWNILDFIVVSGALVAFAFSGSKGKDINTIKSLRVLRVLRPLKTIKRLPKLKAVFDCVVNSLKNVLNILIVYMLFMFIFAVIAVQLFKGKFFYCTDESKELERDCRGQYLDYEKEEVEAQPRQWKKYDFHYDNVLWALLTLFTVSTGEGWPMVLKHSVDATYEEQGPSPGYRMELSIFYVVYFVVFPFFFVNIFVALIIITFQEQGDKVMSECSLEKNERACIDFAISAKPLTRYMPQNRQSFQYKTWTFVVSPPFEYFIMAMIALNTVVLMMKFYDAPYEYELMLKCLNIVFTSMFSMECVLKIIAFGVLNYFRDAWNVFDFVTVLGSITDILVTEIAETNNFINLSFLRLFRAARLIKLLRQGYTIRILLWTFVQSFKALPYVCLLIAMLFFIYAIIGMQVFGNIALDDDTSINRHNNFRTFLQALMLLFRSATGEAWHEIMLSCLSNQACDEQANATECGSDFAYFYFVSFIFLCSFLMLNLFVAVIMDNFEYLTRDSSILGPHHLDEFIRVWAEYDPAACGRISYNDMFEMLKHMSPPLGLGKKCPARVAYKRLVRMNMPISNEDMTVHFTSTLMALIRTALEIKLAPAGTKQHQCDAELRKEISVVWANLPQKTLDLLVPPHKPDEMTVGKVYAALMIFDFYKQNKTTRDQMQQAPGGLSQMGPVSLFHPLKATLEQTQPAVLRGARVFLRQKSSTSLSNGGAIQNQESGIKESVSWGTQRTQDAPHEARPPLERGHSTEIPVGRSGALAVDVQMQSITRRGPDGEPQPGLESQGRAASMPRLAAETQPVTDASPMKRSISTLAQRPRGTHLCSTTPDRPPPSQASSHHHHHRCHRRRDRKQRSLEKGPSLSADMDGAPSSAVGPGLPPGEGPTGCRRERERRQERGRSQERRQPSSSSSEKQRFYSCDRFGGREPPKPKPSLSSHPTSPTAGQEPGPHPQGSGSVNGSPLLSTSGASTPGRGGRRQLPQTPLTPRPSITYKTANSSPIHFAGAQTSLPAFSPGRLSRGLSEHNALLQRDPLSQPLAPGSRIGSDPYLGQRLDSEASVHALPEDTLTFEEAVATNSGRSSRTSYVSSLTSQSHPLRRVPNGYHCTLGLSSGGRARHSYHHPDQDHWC
T1 sequence (P54289 25-1103, further chain): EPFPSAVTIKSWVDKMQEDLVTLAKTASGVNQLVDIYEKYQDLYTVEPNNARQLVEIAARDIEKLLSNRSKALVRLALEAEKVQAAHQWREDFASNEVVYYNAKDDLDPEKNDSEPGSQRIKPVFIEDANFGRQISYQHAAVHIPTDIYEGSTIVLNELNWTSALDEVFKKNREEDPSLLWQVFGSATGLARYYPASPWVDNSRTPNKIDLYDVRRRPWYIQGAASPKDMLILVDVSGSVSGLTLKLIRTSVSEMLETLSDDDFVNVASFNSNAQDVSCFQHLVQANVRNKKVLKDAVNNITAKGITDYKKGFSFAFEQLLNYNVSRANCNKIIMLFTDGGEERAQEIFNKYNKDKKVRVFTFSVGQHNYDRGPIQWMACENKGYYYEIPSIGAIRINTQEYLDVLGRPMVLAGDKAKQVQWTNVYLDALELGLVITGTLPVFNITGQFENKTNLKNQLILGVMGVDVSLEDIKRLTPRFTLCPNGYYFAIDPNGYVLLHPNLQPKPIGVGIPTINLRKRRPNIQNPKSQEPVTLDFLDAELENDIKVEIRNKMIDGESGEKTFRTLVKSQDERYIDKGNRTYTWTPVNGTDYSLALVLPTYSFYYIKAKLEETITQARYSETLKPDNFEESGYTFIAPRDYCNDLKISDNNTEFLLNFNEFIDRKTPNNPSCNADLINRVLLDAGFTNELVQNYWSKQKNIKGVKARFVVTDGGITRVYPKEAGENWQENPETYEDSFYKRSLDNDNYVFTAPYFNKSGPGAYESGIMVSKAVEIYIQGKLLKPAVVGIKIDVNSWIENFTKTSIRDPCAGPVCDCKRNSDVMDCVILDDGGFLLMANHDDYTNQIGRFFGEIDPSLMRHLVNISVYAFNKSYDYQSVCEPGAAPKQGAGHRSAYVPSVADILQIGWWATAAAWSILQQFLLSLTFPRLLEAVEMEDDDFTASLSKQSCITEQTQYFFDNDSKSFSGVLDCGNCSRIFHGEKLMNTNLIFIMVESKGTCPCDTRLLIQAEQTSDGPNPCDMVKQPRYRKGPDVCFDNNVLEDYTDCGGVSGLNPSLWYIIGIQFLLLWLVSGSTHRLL
T1 sequence (P54284 whole entry, further chain): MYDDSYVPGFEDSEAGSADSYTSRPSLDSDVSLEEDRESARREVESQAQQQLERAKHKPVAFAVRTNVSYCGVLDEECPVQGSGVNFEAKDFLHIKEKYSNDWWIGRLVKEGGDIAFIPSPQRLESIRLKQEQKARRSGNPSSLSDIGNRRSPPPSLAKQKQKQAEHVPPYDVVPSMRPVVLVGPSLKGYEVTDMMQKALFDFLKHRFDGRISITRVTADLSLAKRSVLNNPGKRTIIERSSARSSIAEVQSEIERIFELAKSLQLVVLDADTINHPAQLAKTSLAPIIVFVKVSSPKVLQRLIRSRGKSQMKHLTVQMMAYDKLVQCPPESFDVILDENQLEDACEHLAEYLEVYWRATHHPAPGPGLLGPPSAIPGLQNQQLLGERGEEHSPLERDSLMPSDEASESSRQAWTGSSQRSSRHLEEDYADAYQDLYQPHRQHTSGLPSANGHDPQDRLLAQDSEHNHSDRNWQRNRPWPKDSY

| SMILES | inhibition at 3 µM [%] |
| --- | --- |
| Cc1c(-c2ccc(C(F)(F)F)cc2)c(C(=O)N2CCOC(C)(C)C2)n(Cc2ccccc2)c1C(F)(F)F [SC-234, [1-Benzyl-4-methyl-5-(trifluoromethyl)-3-[4-(trifluoromethyl)-phenyl]-1H-pyrrol-2-yl]-(2,2-dimethyl-morpholin-4-yl)-methanone] | 75 to 95 |
| Cc1c(-c2ccc(OC(F)(F)F)cc2)c(C(=O)N(C)CC(C)(C)CO)n(Cc2ccccc2)c1C(F)(F)F [SC-235, 1-Benzyl-N-(3-hydroxy-2,2-dimethyl-propyl)-N,4-dimethyl-5-(trifluoromethyl)-3-[4-(trifluoromethyloxy)-phenyl]-1H-pyrrole-2-carboxylic acid amide] | 75 to 95 |
| Cc1c(-c2ccc(OC(F)(F)F)cc2)c(C(=O)N(C)CCS(C)(=O)=O)n(Cc2ccccc2)c1C(F)(F)F [SC-236, 1-Benzyl-N,4-dimethyl-N-(2-methylsulfonyl-ethyl)-5-(trifluoromethyl)-3-[4-(trifluoromethyloxy)-phenyl]-1H-pyrrole-2-carboxylic acid amide] | > 95 |
| Cc1c(-c2ccc(OC(F)(F)F)cc2)c(C(=O)N(C)C2CCOCC2)n(Cc2ccccc2)c1C(F)(F)F [SC-237, 1-Benzyl-N,4-dimethyl-N-tetrahydro-pyran-4-yl-5-(trifluoromethyl)-3-[4-(trifluoromethyloxy)-phenyl]-1H-pyrrole-2-carboxylic acid amide] | 75 to 95 |
| Cc1c(-c2ccc(OC(F)(F)F)cc2)c(C(=O)N(C)C2CC2)n(Cc2ccccc2)c1C(F)(F)F [SC-238, 1-Benzyl-N-cyclopropyl-N,4-dimethyl-5-(trifluoromethyl)-3-[4-(trifluoromethyloxy)-phenyl]-1H-pyrrole-2-carboxylic acid amide] | 40 to 75 |
| Cc1c(-c2ccc(OC(F)(F)F)cc2)c(C(=O)N2CC(O)C2)n(Cc2ccccc2)c1C(F)(F)F [SC-239, [1-Benzyl-4-methyl-5-(trifluoromethyl)-3-[4-(trifluoromethyloxy)-phenyl]-1H-pyrrol-2-yl]-(3-hydroxy-azetidin-1-yl)-methanone] | 75 to 95 |
| Cc1c(-c2ccc(OC(F)(F)F)cc2)c(C(=O)N(C)CC(C)(C)C)n(Cc2ccccc2)c1C(F)(F)F [SC-240, 1-Benzyl-N-(2,2-dimethyl-propyl)-N,4-dimethyl-5-(trifluoromethyl)-3-[4-(trifluoromethyloxy)-phenyl]-1H-pyrrole-2-carboxylic acid amide] | 30 to 40 |
| Cc1c(-c2ccc(OC(F)(F)F)cc2)c(C(=O)N(C)C(C)(C)CO)n(Cc2ccccc2)c1C(F)(F)F [SC-241, 1-Benzyl-N-(2-hydroxy-1,1-dimethyl-ethyl)-N,4-dimethyl-5-(trifluoromethyl)-3-[4-(trifluoromethyloxy)-phenyl]-1H-pyrrole-2-carboxylic acid amide] | > 95 |
| Cc1c(-c2ccc(OC(F)(F)F)cc2)c(C(=O)N2CCOC(C)(C)C2)n(Cc2ccccc2)c1C(F)(F)F [SC-242, [1-Benzyl-4-methyl-5-(trifluoromethyl)-3-[4-(trifluoromethyloxy)-phenyl]-1H-pyrrol-2-yl]-(2,2-dimethyl-morpholin-4-yl)-methanone] | 75 to 95 |
| Cc1c(-c2ccc(Cl)c(F)c2)c(C(=O)N(C)CC(C)(C)CO)n(Cc2ccccc2)c1C(F)(F)F [SC-243, 1-Benzyl-3-(4-chloro-3-fluoro-phenyl)-N-(3-hydroxy-2,2-dimethyl-propyl)-N,4-dimethyl-5-(trifluoromethyl)-1H-pyrrole-2-carboxylic acid amide] | > 95 |
| Cc1c(-c2ccc(Cl)c(F)c2)c(C(=O)N(C)CCS(C)(=O)=O)n(Cc2ccccc2)c1C(F)(F)F [SC-244, 1-Benzyl-3-(4-chloro-3-fluoro-phenyl)-N,4-dimethyl-N-(2-methylsulfonyl-ethyl)-5-(trifluoromethyl)-1H-pyrrole-2-carboxylic acid amide] | 75 to 95 |
| Cc1c(-c2ccc(Cl)c(F)c2)c(C(=O)N(C)C2CCOCC2)n(Cc2ccccc2)c1C(F)(F)F [SC-245, 1-Benzyl-3-(4-chloro-3-fluoro-phenyl)-N,4-dimethyl-N-tetrahydro-pyran-4-yl-5-(trifluoromethyl)-1H-pyrrole-2-carboxylic acid amide] | > 95 |
| Cc1c(-c2ccc(Cl)c(F)c2)c(C(=O)N(C)C2CC2)n(Cc2ccccc2)c1C(F)(F)F [SC-246, 1-Benzyl-3-(4-chloro-3-fluoro-phenyl)-N-cyclopropyl-N,4-dimethyl-5-(trifluoromethyl)-1H-pyrrole-2-carboxylic acid amide] | 75 to 95 |
| Cc1c(-c2ccc(Cl)c(F)c2)c(C(=O)N2CC(O)C2)n(Cc2ccccc2)c1C(F)(F)F [SC-247, [1-Benzyl-3-(4-chloro-3-fluoro-phenyl)-4-methyl-5-(trifluoromethyl)-1H-pyrrol-2-yl]-(3-hydroxy-azetidin-1-yl)-methanone] | 40 to 75 |
| Cc1c(-c2ccc(Cl)c(F)c2)c(C(=O)N(C)C(C)(C)CO)n(Cc2ccccc2)c1C(F)(F)F [SC-248, 1-Benzyl-3-(4-chloro-3-fluoro-phenyl)-N-(2-hydroxy-1,1-dimethyl-ethyl)-N,4-dimethyl-5-(trifluoromethyl)-1H-pyrrole-2-carboxylic acid amide] | 75 to 95 |
| Cc1c(-c2ccc(Cl)c(F)c2)c(C(=O)N2CCOC(C)(C)C2)n(Cc2ccccc2)c1C(F)(F)F [SC-249, [1-Benzyl-3-(4-chloro-3-fluoro-phenyl)-4-methyl-5-(trifluoromethyl)-1H-pyrrol-2-yl]-(2,2-dimethyl-morpholin-4-yl)-methanone] | 75 to 95 |
| Cc1c(-c2ccc(Cl)c(F)c2)c(C(=O)N(C)CC(C)(C)C)n(Cc2ccccc2)c1C(F)(F)F [SC-250, 1-Benzyl-3-(4-chloro-3-fluoro-phenyl)-N-(2,2-dimethyl-propyl)-N,4-dimethyl-5-(trifluoromethyl)-1H-pyrrole-2-carboxylic acid amide] | 40 to 75 |
| Cc1c(-c2ccc(F)c(Cl)c2)c(C(=O)N(C)CC(C)(C)CO)n(Cc2ccccc2)c1C(F)(F)F [SC-251, 1-Benzyl-3-(3-chloro-4-fluoro-phenyl)-N-(3-hydroxy-2,2-dimethyl-propyl)-N,4-dimethyl-5-(trifluoromethyl)-1H-pyrrole-2-carboxylic acid amide] | 75 to 95 |
| Cc1c(-c2ccc(F)c(Cl)c2)c(C(=O)N(C)CCS(C)(=O)=O)n(Cc2ccccc2)c1C(F)(F)F [SC-252, 1-Benzyl-3-(3-chloro-4-fluoro-phenyl)-N,4-dimethyl-N-(2-methylsulfonyl-ethyl)-5-(trifluoromethyl)-1H-pyrrole-2-carboxylic acid amide] | > 95 |
| Cc1c(-c2ccc(F)c(Cl)c2)c(C(=O)N(C)C2CCOCC2)n(Cc2ccccc2)c1C(F)(F)F [SC-253, 1-Benzyl-3-(3-chloro-4-fluoro-phenyl)-N,4-dimethyl-N-tetrahydro-pyran-4-yl-5-(trifluoromethyl)-1H-pyrrole-2-carboxylic acid amide] | > 95 |
| Cc1c(-c2ccc(F)c(Cl)c2)c(C(=O)N(C)C2CC2)n(Cc2ccccc2)c1C(F)(F)F [SC-254, 1-Benzyl-3-(3-chloro-4-fluoro-phenyl)-N-cyclopropyl-N,4-dimethyl-5-(trifluoromethyl)-1H-pyrrole-2-carboxylic acid amide] | 75 to 95 |
| Cc1c(-c2ccc(F)c(Cl)c2)c(C(=O)N2CC(O)C2)n(Cc2ccccc2)c1C(F)(F)F [SC-255, [1-Benzyl-3-(3-chloro-4-fluoro-phenyl)-4-methyl-5-(trifluoromethyl)-1H-pyrrol-2-yl]-(3-hydroxy-azetidin-1-yl)-methanone] | 40 to 75 |
| Cc1c(-c2ccc(F)c(Cl)c2)c(C(=O)N(C)CC(C)(C)C)n(Cc2ccccc2)c1C(F)(F)F [SC-256, 1-Benzyl-3-(3-chloro-4-fluoro-phenyl)-N-(2,2-dimethyl-propyl)-N,4-dimethyl-5-(trifluoromethyl)-1H-pyrrole-2-carboxylic acid amide] | 30 to 40 |
| Cc1c(-c2ccc(F)c(Cl)c2)c(C(=O)N(C)C(C)(C)CO)n(Cc2ccccc2)c1C(F)(F)F [SC-257, 1-Benzyl-3-(3-chloro-4-fluoro-phenyl)-N-(2-hydroxy-1,1-dimethyl-ethyl)-N,4-dimethyl-5-(trifluoromethyl)-1H-pyrrole-2-carboxylic acid amide] | 75 to 95 |
| Cc1c(-c2ccc(F)c(Cl)c2)c(C(=O)N2CCOC(C)(C)C2)n(Cc2ccccc2)c1C(F)(F)F [SC-258, [1-Benzyl-3-(3-chloro-4-fluoro-phenyl)-4-methyl-5-(trifluoromethyl)-1H-pyrrol-2-yl]-(2,2-dimethyl-morpholin-4-yl)-methanone] | 75 to 95 |
| CN(CC(C)(C)C)C(=O)c1c(-c2ccc(Cl)cc2)c(S(C)(=O)=O)c(C(F)(F)F)n1Cc1ccccc1 [SC-259, 1-Benzyl-3-(4-chlorophenyl)-N-(2,2-dimethyl-propyl)-N-methyl-4-methylsulfonyl-5-(trifluoromethyl)-1H-pyrrole-2-carboxylic acid amide] | 75 to 95 |
| Cc1c(-c2ccc(OCC(F)(F)F)cc2)c(C(=O)N(C)CC(C)(C)C)n(Cc2ccccc2)c1C(F)(F)F [SC-260, 1-Benzyl-N,4-dimethyl-N-neopentyl-3-(4-(2,2,2-trifluoroethoxy)phenyl)-5-(trifluoromethyl)-1H-pyrrole-2-carboxamide] | 40 to 75 |
| CN(CC(C)(C)C)C(=O)c1c(-c2ccc(Cl)cc2)cc(C(F)(F)F)n1Cc1ccc(F)cc1 [SC-261, 3-(4-Chlorophenyl)-N-(2,2-dimethyl-propyl)-1-[(4-fluorophenyl)-methyl]-N-methyl-5-(trifluoromethyl)-1H-pyrrole-2-carboxylic acid amide] | 75 to 95 |
| Cc1c(-c2ccc(OC(F)(F)F)cc2F)c(C(=O)N2CCOCC2)n(Cc2ccccc2)c1C(F)(F)F [SC-262, (1-benzyl-3-(2-fluoro-4-(trifluoromethoxy)phenyl)-4-methyl-5-(trifluoromethyl)-1H-pyrrol-2-yl)(morpholino)methanone] | 75 to 95 |
